The test system of data set [1] is T. vaginalis trophozoites. In words: Anti-T. vaginalis assay (trophozoite viability, trypan blue). The format is cell-based. Conditions: for selectivity index (SI), T. vaginalis: Caco-2 CC50 relative to T. vaginalis IC50; for IC50: Trichomonas vaginalis, trophozoites, 37 °C; for IC50 / reduction of T. vaginalis trophozoite viability at 6 µM / reduction of T. vaginalis trophozoite viability at 100 μM: 24 h; for reduction of T. vaginalis trophozoite viability at 100 μM: relative to negative control. As to the method: The isolate T. vaginalis, Donne ATCC 30236 was axenically grown in trypticase–yeast extract–maltose (TYM) medium (pH 6.0), supplemented with 10% sterile horse serum (previously inactivated at 56 °C for 30 min), and incubated at 37 °C under microaerobic conditions. The trophozoites were axenically maintained, and a trypan blue (0.4%) exclusion assay was performed to ensure that the minimum viability of 95% and logarithmic growth phase were achieved before proceeding to the antiparasitic assay.
Drug susceptibility assays were performed to analyze the trichomonacidal potential of O2N-BZM7 and O2N-BZM9 compounds against T. vaginalis, as previously described. The compounds were diluted in dimethylsulfoxide (DMSO) as a vehicle for solubilization. […] Trophozoites were adjusted to an initial density of 2.6 × 10^5 trophozoites/mL of TYM medium. Then, 1.5 mL tubes were seeded with […] of T. vaginalis trophozoites/tubes (2.6 × 10^5 trophozoites/mL), O2N-BZM7 and O2N-BZM9 were added, and tubes were incubated at 37 °C with 5% CO2 for 24 h. After incubation, trophozoites were counted with trypan blue (0.4%) (1:1, v/v) on a Neubauer chamber to determine the trophozoites’ motility, morphology, and viability. Three controls were used in each assay: a negative control containing only trophozoites, a 0.06% DMSO control, and a positive control containing MTZ at 100 μM (Sigma-Aldrich, St. Louis, MO, USA). The IC50 was calculated using the GraphPad Prism 8.0 software Inc. version 8.0.2 (263) (San Diego, CA, USA).

Data set [2] relates to G. lamblia. In words: In vitro antigiardial activity. The following applies: for selectivity index (SI), G. lamblia: Caco-2 CC50 relative to G. lamblia IC50. The format is cell-based.
A further data set has as its system Caco-2 cells. The following applies: read-out: Caco-2 CC50, metronidazole; cited from earlier work.
Data set [3] has as its target T1, GlG6PD::6PGL (Giardia intestinalis, UniProt A8BWM5). In words: GlG6PD::6PGL enzyme inactivation assay. It is filed as biochemical, G. lamblia. The following applies: for Inhibition (%) at 400 µM of GlG6PD::6PGL: 400 µM compound, 0.2 mg/mL enzyme, 37 °C, 2 h, relative to enzyme without inhibitor; for inhibition at 400 µM: read-out: Inhibition (%) at 400 µM of GlG6PD::6PGL; for kinact/KI: read-out: second-order inactivation rate constant k2, GlG6PD::6PGL. As for the experimental part: (§1) The G6PD domain activity of the recombinant proteins was spectrophotometrically measured at 25 °C by monitoring the reduction in NADP^+ at 340 nm. The assay was performed with 1 mL of standard reaction mixture containing 0.1 M Tris-HCl, 0.01 M MgCl2, 1 mM NADP^+, and 1 mM glucose-6-phosphate (G6P) at pH 8.3. The reaction was initiated with the addition of 1 µg/mL fused GlG6PD::6PGL or TvG6PD::6PGL enzymes.
(§2) Inactivation assays were performed with the compounds against GlG6PD::6PGL and TvG6PD::6PGL. Thus, all the compounds were activate immediately before the experiments as previously reported and diluted using dimethyl sulfoxide (DMSO) as a solvent. For the assay, 0.2 mg/mL of the enzyme was incubated with the compounds at a concentration of 400 µM at 37 °C for 2 h. Following incubation, the activity was measured with a standard reaction mixture. Only the compounds that reduced the activity of the enzyme by more than 50% were used in the subsequent experiments.
(§3) Then, aliquots from these incubations were withdrawn, and the residual activity was determined under standard conditions. The results are reported as the percentage of residual activity (using the activity of each enzyme incubated without any compound as 100% activity) versus the compound’s concentration.
(§4) The second-order rate constants of inactivation for each one of the compounds were calculated by obtaining the pseudo-first-order rate constant (k1) values. Pseudo-first-order inactivation rate constants (k1) were obtained at four or five fixed concentrations for each of the compounds. At the indicated times, aliquots were withdrawn to determine residual activity. Then, residual activity data were fitted using the monoexponential decay equation, as previously reported. The previously obtained k1 values were replotted against the concentrations of each compound, and the slope created by these plots corresponds to the second-order inactivation constant k2 (M^−1·s^−1).

Data set [4] addresses T2, TvG6PD::6PGL (Trichomonas vaginalis, UniProt A2DBT5). In words: TvG6PD::6PGL enzyme inactivation assay. The format is biochemical, T. vaginalis. Conditions: for inhibition at 400 µM: read-out: Inhibition (%) at 400 µM of TvG6PD::6PGL, 400 µM compound, 0.2 mg/mL enzyme, 37 °C, 2 h, relative to enzyme without inhibitor; for kinact/KI: read-out: second-order inactivation rate constant k2, TvG6PD::6PGL, slope of k1 versus compound concentration. As to the method: as §1, §2, §3, §4

The next data set relates to GlTIM. Details: method as in PMID 32882836. The following applies: cited from earlier work; for IC50: read-out: IC50 TIM enzyme from G. lamblia.
Data set [5] concerns the target T1, GlG6PD::6PGL. In words: Circular dichroism of GlG6PD::6PGL with compounds. Details: species or system G. lamblia. The following applies: compound at IC50 concentration, 2 h, 37 °C, protein 0.5 mg/mL. As for the experimental part:
One control containing only enzyme was used in each assay. Then, the proteins were loaded in a quartz cell with a 0.1 cm path length, and spectral scans were recorded at 25 °C in ultraviolet circular dichroism (UV-CD) ranging from 200 to 260 nm. The spectra of the blanks (buffer P solution containing each of the compounds) were subtracted from all the obtained spectra that contained the protein. All the CD data were reported as molar ellipticity. The experiments were performed in triplicate.
In general terms: Circular dichroism is the unequal absorption of left and right circularly polarised light.

The target in data set [6] is T1, GlG6PD::6PGL. In words: Intrinsic fluorescence of GlG6PD::6PGL with compounds. Set-up: species or system G. lamblia. The following applies: compound at IC50 concentration, 2 h, 37 °C; for maximum intrinsic fluorescence intensity of GlG6PD::6PGL: control 874 a.u. As to the method:
(§5) The effect of the compounds on the tertiary structure (3D) of the GlG6PD::6PGL and TvG6PD::6PGL proteins was evaluated by monitoring the changes in the intrinsic and extrinsic fluorescence using a Perkin-Elmer LS-55 spectrofluorometer (Perkin-Elmer, Wellesley, MA, USA). […] Following incubation, the proteins were excited at 280 nm, and we recorded the emission spectra from 310 to 500 nm with a scan speed of 150 nm/min using excitation and emission slits of 4 and 8 nm, respectively. The spectra of the blanks (buffer phosphate containing each of the compounds) were subtracted from all the obtained spectra that contained the protein, and the spectrum of the enzyme without the compound was used as control. The final spectrum for each compound was the average of five scans.

The target of data set [7] is T2, TvG6PD::6PGL. In words: Intrinsic fluorescence of TvG6PD::6PGL with compounds. Details: species or system T. vaginalis. The following applies: compound at IC50 concentration, 2 h, 37 °C; native protein 673 a.u. As for the experimental part:
as §5

Data set [8] concerns G. lamblia. Set-up: method as in PMID 32882836. The following applies: previous study; cited from earlier work.
Data set [9] deals with T2, TvG6PD::6PGL. Conditions: cited from earlier work.

Read-outs that look alike come from different tables or passages of the source.

T2 sequence (A2DBT5 entry or part of it): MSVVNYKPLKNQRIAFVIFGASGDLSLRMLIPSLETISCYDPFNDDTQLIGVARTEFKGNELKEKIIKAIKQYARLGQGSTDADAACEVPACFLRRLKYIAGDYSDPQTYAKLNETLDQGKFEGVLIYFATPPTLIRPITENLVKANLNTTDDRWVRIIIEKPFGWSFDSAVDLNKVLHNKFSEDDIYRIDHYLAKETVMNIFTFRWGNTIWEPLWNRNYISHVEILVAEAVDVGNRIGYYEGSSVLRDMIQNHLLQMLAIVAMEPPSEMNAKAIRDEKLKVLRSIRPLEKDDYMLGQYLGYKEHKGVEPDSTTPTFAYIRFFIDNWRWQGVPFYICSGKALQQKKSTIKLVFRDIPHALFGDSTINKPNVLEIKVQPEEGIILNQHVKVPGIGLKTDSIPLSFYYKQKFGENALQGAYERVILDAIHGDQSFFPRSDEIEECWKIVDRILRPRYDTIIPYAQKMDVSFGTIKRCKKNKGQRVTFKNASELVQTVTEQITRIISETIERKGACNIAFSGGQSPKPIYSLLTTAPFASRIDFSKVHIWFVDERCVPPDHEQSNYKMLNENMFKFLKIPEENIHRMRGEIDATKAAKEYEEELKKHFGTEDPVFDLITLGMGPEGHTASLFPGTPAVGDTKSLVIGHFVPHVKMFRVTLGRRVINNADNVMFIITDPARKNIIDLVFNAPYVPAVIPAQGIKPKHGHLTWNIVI
T1 sequence (A8BWM5 entry or part of it): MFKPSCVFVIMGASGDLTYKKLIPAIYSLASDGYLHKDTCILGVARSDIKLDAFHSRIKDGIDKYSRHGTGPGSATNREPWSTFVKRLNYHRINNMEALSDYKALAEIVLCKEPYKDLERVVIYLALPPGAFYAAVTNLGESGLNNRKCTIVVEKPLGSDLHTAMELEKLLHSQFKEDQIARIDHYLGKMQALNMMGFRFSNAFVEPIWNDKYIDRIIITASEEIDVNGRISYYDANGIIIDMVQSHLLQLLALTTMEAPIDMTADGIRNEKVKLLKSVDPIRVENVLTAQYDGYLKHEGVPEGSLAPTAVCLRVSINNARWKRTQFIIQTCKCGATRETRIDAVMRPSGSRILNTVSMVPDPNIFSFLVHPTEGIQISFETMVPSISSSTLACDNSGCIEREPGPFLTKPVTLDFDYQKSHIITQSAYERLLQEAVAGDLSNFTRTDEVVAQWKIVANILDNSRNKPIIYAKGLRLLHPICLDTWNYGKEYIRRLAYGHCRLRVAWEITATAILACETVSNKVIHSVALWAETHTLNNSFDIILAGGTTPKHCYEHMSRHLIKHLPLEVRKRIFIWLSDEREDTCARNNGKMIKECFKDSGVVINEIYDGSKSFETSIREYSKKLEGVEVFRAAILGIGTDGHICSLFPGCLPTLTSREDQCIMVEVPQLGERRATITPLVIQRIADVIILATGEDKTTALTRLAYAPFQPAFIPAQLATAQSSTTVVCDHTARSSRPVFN

As a reminder, the IC50 is the concentration that gives 50% inhibition. For orientation: CC50 means the concentration at which the toxic effect on the cells reaches its halfway point. Consider `Cc1ncc([N+](=O)[O-])n1CCO` [Metronidazole, reference compound], for which, in data set [1], the “selectivity index (SI), T. vaginalis” value stood at 1.6 and the 50% inhibitory concentration (IC50) stood at 12 µM. The “selectivity index (SI), G. lamblia” value in the data set on G. lamblia [2] worked out at 3.9. Also, the IC50 in the data set with G. lamblia [2] (Giardia duodenalis, no reference given, read-out: G. lamblia IC50, metronidazole positive control) was 4.8 µM. Further, the CC50 in the data set with Caco-2 cells is 19 µM.
Regarding `COc1c(C)cnc(C[S+]([O-])c2nc3ccccc3[nH]2)c1C` (stereo not shown) [H-BZM2, 2-[(4-methoxy-3,5-dimethylpyridin-2-yl)methanesulfinyl]-1H-benzimidazole], at GlG6PD::6PGL [3], the IC50 was 24 µM, the “Inhibition (%) at 400 µM of GlG6PD::6PGL” value is “complete activity of the GlG6PD::6PGL enzyme was eradicated”, the inhibition at 400 µM was 100 ± 5% and the kinact/KI was determined as 3.3 M⁻¹ s⁻¹. Also, at TvG6PD::6PGL [4], the inhibition at 400 µM stood at 47 ± 5%. The IC50 in the data set with GlTIM was 37 µM.
As to `Cc1c(OCC(F)(F)F)ccnc1C[S+]([O-])c1nc2ccc([N+](=O)[O-])cc2[nH]1` (stereo not shown) [Compound O2N-BZM9, 2-{[3-methyl-4-(2,2,2-trifluoroethoxy)pyridin-2-yl]methanesulfinyl}-6-nitro-1H-benzimidazole], on GlG6PD::6PGL [3], the half-maximal inhibitory concentration (IC50) came to 15 µM, the “Inhibition (%) at 400 µM of GlG6PD::6PGL” value is given as “complete activity of the GlG6PD::6PGL enzyme was eradicated”, the inhibition at 400 µM stood at 100 ± 5% and the kinact/KI stood at 6.1 M⁻¹ s⁻¹. For the same molecule, on TvG6PD::6PGL [4], the inhibition at 400 µM is over 70% and the kinact/KI was 1.62 M⁻¹ s⁻¹. Moreover, the “change of secondary structure (CD spectra) of GlG6PD::6PGL” value on GlG6PD::6PGL [5] is recorded as “did not induce alterations of the secondary structure”. Further, on GlG6PD::6PGL [6], the “reduction of intrinsic fluorescence of GlG6PD::6PGL compared to control” value amounted to 62% and the “maximum intrinsic fluorescence intensity of GlG6PD::6PGL” value is 329 a.u. Also, the “maximal intrinsic fluorescence intensity of TvG6PD::6PGL” value at TvG6PD::6PGL [7] is given as 102 a.u. In addition, in data set [1], the “reduction of T. vaginalis trophozoite viability at 6 µM” value was 52%; the “reduction of T. vaginalis trophozoite viability at 100 μM” value was 100%; the “selectivity index (SI), T. vaginalis” value is listed as 160; half-maximal inhibition (IC50) required 4 µM. The “selectivity index (SI), G. lamblia” value in the data set with G. lamblia [2] worked out at 39. In addition, in the data set with GlTIM, the “k2 for inactivation of GlTIM enzyme” value was 2.8 M⁻¹ s⁻¹ and the IC50 was 20 µM. The half-maximal inhibitory concentration (IC50) in the data set with G. lamblia [8] was 17 µM.
As for `O=C(Nc1ccc(Cl)cc1)Nc1ncc([N+](=O)[O-])s1` [CNZ-3], the “k2 for TvG6PD::6PGL protein, in-house library compounds” value on TvG6PD::6PGL [9] was 0.66 M⁻¹ s⁻¹.
Consider `Cc1c(OCC(F)(F)F)ccnc1C[S+]([O-])c1nc2ccc(N)cc2[nH]1` (stereo not shown) [Compound H2N-BZM6, 2-{[3-methyl-4-(2,2,2-trifluoroethoxy)pyridin-2-yl]methanesulfinyl}-1H-benzimidazol-6-amine], for which the “Inhibition (%) at 400 µM of GlG6PD::6PGL” value at GlG6PD::6PGL [3] is “complete activity of the GlG6PD::6PGL enzyme was eradicated”. Further, the inhibition at 400 µM at GlG6PD::6PGL [3] is 100 ± 5%; on TvG6PD::6PGL [4], 12 ± 5%.
`O=[N+]([O-])c1ccc2nc([S+]([O-])Cc3ccccn3)[nH]c2c1` (stereo not shown) [Compound O2N-BZM7, 6-nitro-2-[(pyridin-2-yl)methanesulfinyl]-1H-benzimidazole]: on GlG6PD::6PGL [3], the “Inhibition (%) at 400 µM of GlG6PD::6PGL” value was “complete activity of the GlG6PD::6PGL enzyme was eradicated”, the inhibition at 400 µM amounted to 100 ± 5% and the kinact/KI came to 1.9 M⁻¹ s⁻¹. In addition, the kinact/KI on TvG6PD::6PGL [4] came out at 0.85 M⁻¹ s⁻¹. For the same molecule, the “change of secondary structure (CD spectra) of GlG6PD::6PGL” value on GlG6PD::6PGL [5] is “did not induce alterations of the secondary structure”. Moreover, on GlG6PD::6PGL [6], the “reduction of intrinsic fluorescence of GlG6PD::6PGL compared to control” value is recorded as 62% and the “maximum intrinsic fluorescence intensity of GlG6PD::6PGL” value stood at 329 a.u. The “maximal intrinsic fluorescence intensity of TvG6PD::6PGL” value at TvG6PD::6PGL [7] is listed as 415 a.u. Further, in data set [1], the “reduction of T. vaginalis trophozoite viability at 6 µM” value stood at 52%; the “reduction of T. vaginalis trophozoite viability at 100 μM” value turned out to be 100%; the “selectivity index (SI), T. vaginalis” value came out at 106; the concentration for half-maximal inhibition (IC50) came out at 6 µM. Moreover, in the data set with G. lamblia [2], the “selectivity index (SI), G. lamblia” value is given as 45. In the data set with GlTIM, the “k2 for inactivation of GlTIM enzyme” value was 3.2 M⁻¹ s⁻¹ and the half-maximal inhibitory concentration (IC50) was 12 µM. The IC50 in the data set on G. lamblia [8] was 14 µM.
Regarding `[O-][S+](Cc1ccccn1)c1nc2ccccc2[nH]1` (stereo not shown) [H-BZM1, 2-[(pyridin-2-yl)methanesulfinyl]-1H-benzimidazole], the inhibition at 400 µM worked out at 62 ± 5% at GlG6PD::6PGL [3] and 7 ± 5% on TvG6PD::6PGL [4].
In the case of `O=C(COc1ccc(/C=C2\SC(=O)NC2=O)cc1)NC1CCN(Cc2ccccc2)CC1` [MCC-7], the “k2 for TvG6PD::6PGL protein, in-house library compounds” value at TvG6PD::6PGL [9] was 0.26 M⁻¹ s⁻¹.

The values above are taken from paper PMC9781444, “Pyridyl Methylsulfinyl Benzimidazole Derivatives as Promising Agents against Giardia lamblia and Trichomonas vaginalis” (Molecules, 2022).
